How the values were obtained:
[1] = test system: HBsAg in HBV-infected primary human hepatocytes; assay: Cryopreserved primary human hepatocytes (PHH) HBV infection assay, extracellular HBsAg; type: cell-based; conditions: Hepatitis B virus, Hepatocyte, 216 h, read-out: HBsAg IC50
Procedure: This assay is used to confirm the anti-HBV effect of the compounds in HBV PHH infection assay. Cryopreserved PHH (BioreclamationlVT, Lot YJM) was thawed at 37° C. and gently transferred into pre-warmed InVitroGRO HT medium (BioreclamationIVT, Cat. S03317). The mixture was centrifuged at 70 relative centrifugal force (RCF) for 3 minutes at RT, and the supernatant was discarded. Pre-warmed InVitroGRO CP medium (BioreclamationlVT, Cat# S03316) was added to the cell pellet to gently re-suspend cells. The cells were seeded at the density of 5.8×10^4 cells per well to collagen I coated 96-well plate (Gibco, Cat. A1142803) with the InVitroGRO CP medium. All plates were incubated at 37° C. with 5% CO2 and 85% humidity.
At 20 hours after plating, the medium was changed to PHH culture medium (Dulbecco's Modified Eagle Medium (DMEM)/F12 (1:1) (Gibco, Cat. 11320-033), 10% fetal bovine serum (Gibco Cat. 10099141), 100 U/mL penicillin, 100 μg/mL streptomycin (Gibco, Cat. 151401-122), 5 ng/mL human epidermal growth factor (Invitrogen Cat. PHG0311L), 20 ng/mL dexamethasone (Sigma, Cat. D4902) and 250 ng/mL human recombinant insulin (Gibco, Cat. 12585-014)). And the cells were incubated at 37° C. with 5% CO2 and 85% humidity for 4 hours. The medium was then changed to pre-warmed PHH culture medium containing 4% polyethylene glycol (PEG) MW8000 (Sigma, Cat. P1458-50ML) and 1% DMSO (Sigma, Cat. D2650). 5.8×10^6 genomic equivalents of HBV were added into the medium.
At 24 hours post-infection, the cells were gently washed with PBS and refreshed with PHH culture medium supplemented with 1% DMSO, and 0.25 mg/mL Matrix gel (Corning, Cat. 356237) at 200 μL per well. All plates were immediately placed in at 37° C. CO2 incubator.
24 hours later, serial dilutions of compounds made with DMSO were further diluted with the same culture medium (PHH culture medium supplemented with 1% DMSO and 0.25 mg/mL Matrix gel as described above) before they were added to the cells to reach desired final compound concentrations and 1% DMSO concentration. The medium containing the compounds were refreshed every three days.
At 9 days post-compound treatment, extracellular HBsAg level were measured with Chemiluminescence Immuno Assay (CLIA) kit (Autobio, HBsAg Quantitative CLIA).
HBsAg IC50 values were derived from the dose-response curve using 4 parameter logistic curve fit method. The compounds of formula (I) have HBsAg IC50<20 μM, particularly <1 μM.

[2] = test system: HBeAg level in HepDES19 cells (surrogate marker for HBV cccDNA); assay: Engineered HepDES19 primary screen assay (HBeAg as surrogate marker for cccDNA); type: cell-based; conditions: Hepatitis B virus, 120 h; HepDES19 cells, 5 days incubation with compound, HBeAg ELISA; read-out: IC50 (HBeAg level, HepDES19 primary screen assay)
Source text: The assay was employed to screen for novel cccDNA inhibitors. HepDES19 is a cccDNA-producing cell line. In this cell line, HBeAg in the cell culture supernatant as surrogate marker, as HBeAg production depends on cccDNA level and activity. HepDES19 is an engineered cell line which contains a 1.1 unit length HBV genome, and pgRNA transcription from the transgene is controlled by Tetracycline (Tet). In the absence of Tet, pgRNA transcription will be induced, but HBV e antigen (HBeAg) could not be produced from this pgRNA due to very short leader sequence before the HBeAg start codon and the start codon is disrupted. Only after cccDNA is formed, the missing leader sequence and start codon mutation would be restored from the 3′-terminal redundancy of pgRNA, and then HBeAg could be synthesized. Therefore, HBeAg could be used as a surrogate marker for cccDNA (Zhou, T. et al., Antiviral Res.(2006), 72(2), 116-124; Guo, H. et al., J. Virol. (2007), 81(22), 12472-12484).
HepDES19 cells were seeded at 2×10^6 cells per T150 flask and cultured with the culture medium (Dulbecco's Modified Eagle Medium: Nutrient Mixture F-12 [DMEM-F12, Gibco Cat. 11320-82], 10% Fetal Bovine Serum [FBS, Clontech Cat. 631101], 0.1 mM Non-Essential Amino Acids Solution [NEAA, Gibco Cat. 11140-050], 50 μg/mL Penicillin-Streptomycin [PS, Invitrogen Cat. 15140-163], 500 μg/mL Geneticin [G418, Invitrogen Cat. 10131-027]) containing 3 μg/mL Tet (Sigma, Cat. 87128) for 5 days. Cells were then seeded at 4×10^6 cells per T150 in the same culture medium as described above in the absence of Tet for 8 days. Cells were then harvested and frozen at density of 2×10^6 cells per mL. For compound testing, the frozen cells were thawed and seeded into 96-well plates at a density of 6 ×10^4 cells per well. At 24hours after seeding, half log serial dilutions of compounds made with Dimethyl sulfoxide (DMSO, Sigma, Cat. D2650) were further diluted with the same culture medium as described above before they were added to the cells to reach desired final compound concentrations and 1% DMSO concentration. Plates were then incubated at 37° C. for another 5 days before measurement of HBeAg level and cell viability. Intracellular HBeAg level were measured with enzyme-linked immunosorbent assay (ELISA) kit (Shanghai Kehua Diagnostic Medical Products Co., Ltd). Cell viability was assessed using Cell Counting Kit-8 (DonJindo, Cat. CK04-20). IC50 values were derived from the dose-response curve using 4 parameter logistic curve fit method.
The compounds of the present invention were tested for their capacity to inhibit extracellular HBeAg level as described herein.

## COc1ccc(C2=Nc3c(Cl)cccc3C(C(=O)O)N2)cc1 (stereo not shown) [Example 4, 8-chloro-2-(4-methoxyphenyl)-3,4-dihydroquinazoline-4-carboxylic Acid]
[1]
  IC50: 1950 nM
[2]
  IC50: 880 nM

## Cc1cc(C2=Nc3c(Cl)cccc3C(C(=O)O)N2)ccc1Br (stereo not shown) [Example 5, 2-(4-bromo-3-methyl-phenyl)-8-chloro-3,4-dihydroquinazoline-4-carboxylic Acid]
[1]
  IC50: 4370 nM
[2]
  IC50: 560 nM

## O=C(O)C1NC(c2cccc(Br)c2)=Nc2cc(C(F)(F)F)ccc21 (stereo not shown) [Example 6, 2-(3-bromophenyl)-7-(trifluoromethyl)-3,4-dihydroquinazoline-4-carboxylic Acid]
[1]
  IC50: 7180 nM
[2]
  IC50: 3430 nM

## O=C(O)C1NC(c2ccc(Br)cc2)=Nc2cc(C(F)(F)F)ccc21 (stereo not shown) [Example 7, 2-(4-bromophenyl)-7-(trifluoromethyl)-3,4-dihydroquinazoline-4-carboxylic Acid]
[1]
  IC50: 2310 nM
[2]
  IC50: 3010 nM

## COC(=O)C1NC(c2ccc(Br)cc2)=Nc2c(Cl)cccc21 (stereo not shown) [Example 12, methyl 2-(4-bromophenyl)-8-chloro-3,4-dihydroquinazoline-4-carboxylate]
[1]
  IC50: 1360 nM
[2]
  IC50: 330 nM

## NC(=O)C1NC(c2ccc(Br)cc2)=Nc2c(Cl)cccc21 (stereo not shown) [Example 13, 2-(4-bromophenyl)-8-chloro-3,4-dihydroquinazoline-4-carboxamide]
[1]
  IC50: 2840 nM
[2]
  IC50: 70 nM

## COc1ccc(C2=Nc3c(Cl)cccc3C(C(=O)NCCO)N2)cc1 (stereo not shown) [Example 16, 8-chloro-N-(2-hydroxyethyl)-2-(4-methoxyphenyl)-3,4-dihydroquinazoline-4-carboxamide]
[1]
  IC50: 4540 nM
[2]
  IC50: 2030 nM

## CC1NC(c2ccc(OCCOC3CC(C(=O)O)C3)cc2)=Nc2cc(C(F)(F)F)ccc21 (stereo not shown) [Example 19, 3-[2-[4-[4-methyl-7-(trifluoromethyl)-3,4-dihydroquinazolin-2-yl]phenoxy]ethoxy]cyclobutanecarboxylic Acid]
[1]
  IC50: 7630 nM
[2]
  IC50: 4400 nM

## Cc1cc(OCCOC2CC(C(=O)O)C2)ccc1C1=Nc2c(Cl)cccc2C(C)N1 (stereo not shown) [Example 22, 3-[2-[4-(8-chloro-4-methyl-3,4-dihydroquinazolin-2-yl)-3-methyl-phenoxy]ethoxy]cyclobutanecarboxylic Acid]
[1]
  IC50: 670 nM
[2]
  IC50: 8430 nM

## COC(=O)c1ccc(-c2csc(C3=Nc4c(Cl)cccc4C(C)N3)n2)cc1 (stereo not shown) [Example 32, methyl 4-[2-(8-chloro-4-methyl-3,4-dihydroquinazolin-2-yl)thiazol-4-yl]benzoate]
[1]
  IC50: 24 nM
[2]
  IC50: 860 nM

## CC(C)C1NC(c2ccc(Br)cc2)=Nc2c(Cl)cccc21 (stereo not shown) [Example 36, 2-(4-bromophenyl)-8-chloro-4-isopropyl-3,4-dihydroquinazoline]
[1]
  IC50: 42 nM
[2]
  IC50: 6530 nM

Source: patent publication US20220388969A1, “SUBSTITUTED 3,4-DIHYDROQ[…] THE TREATMENT AND PROPHYLAXIS OF HEPATITIS B VIRUS INFECTION” (priority 2019, published 2022)
